Structures can show the parent of a compound that is named as a salt.

For the test, the system named is Acinetobacter baumannii ATCC17961. The experiment in a line: Antimicrobial susceptibility testing: 90% growth inhibitory concentration (IC90) determination, Iso-Sensitest broth, OD 600 nm. Type of test: cell-based. The note with it: 90% growth inhibitory concentration, Acinetobacter baumannii ATCC17961, Iso-Sensitest broth, OD 600 nm over 16 h; read-out: ATCC 17961 IC90. The method, boiled down: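 Growth of bacteria (~5×10^5 CFU/ml, Iso-Sensitest medium, 35±2 °C) was followed by OD at 600 nm at 20-min intervals over 16 h against a 10-point twofold compound series (e.g. 50–0.097 μM final). Concentration giving 90% inhibition in log phase was reported.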
Consider `CCc1cc(Nc2nccn3c(-c4cc(F)ccc4F)cnc23)ccc1C(=O)NCCOCCN` [Example 210, N-[2-(2-amino-ethoxy)ethyl]-4-[[3-(2,5-difluorophenyl)imidazo[1,2-a]pyrazin-8-yl]amino]-2-ethyl-benzamide], for which the concentration for an effect of 90% (IC90) came out at 550 nM.
For the compound `CCc1cc(Nc2nccn3c(-c4cc(F)cc(OC)c4)cnc23)ccc1C(=O)NCCOCCN` [Example 211, N-[2-(2-amino-ethoxy)ethyl]-2-ethyl-4-[[3-(3-fluoro-5-methoxy-phenyl)imidazo [1,2-a]pyrazin-8-yl]amino] benzamide], the IC90 amounted to 940 nM.
Regarding `COc1ccc(-c2cnc3c(Nc4cc(C)c(C(=O)NCCOCCN=C(N(C)C)N(C)C)c(F)c4)nccn23)c(F)c1F` [Example 212, N-(2-(2-((bis(dimethyl-amino)methylene)amino)ethoxy)ethyl)-4-((3-(2,3-difluoro-4-methoxyphenyl)imidazo[1,2-a]pyrazin-8-yl)amino)-2-fluoro-6-methylbenzamide formate], the concentration for an effect of 90% (IC90) is 400 nM.
To `CCc1cc(Nc2nccn3c(-c4cc(C)cc(F)c4)cnc23)ccc1C(=O)NCCOCCN` [Example 213, N-[2-(2-amino-ethoxy)ethyl]-2-ethyl-4-[[3-(3-fluoro-5-methyl-phenyl)imidazo [1,2-a]pyrazin-8-yl]amino] benzamide] belongs 810 nM.
With `CCc1cc(Nc2nccn3c(-c4c(F)cccc4F)cnc23)ccc1C(=O)NCCOCCN` [Example 214, N-[2-(2-amino-ethoxy)ethyl]-4-[[3-(2,6-difluorophenyl)imidazo[1,2-a]pyrazin-8-yl]amino]-2-ethyl-benzamide], the 90% effect concentration (IC90) was 950 nM.
On to `COc1ccc(-c2cnc3c(Nc4cc(C)c(C(=O)NCCOCCNC(=O)[C@@H]5C[C@@H](O)CN5)c(F)c4)nccn23)c(F)c1F` [Example 215, (2S,4R)-N-(2-(2-(4-((3-(2,3-difluoro-4-methoxyphenyl)imidazo[1,2-a]pyrazin-8-yl)amino)-2-fluoro-6-methyl-benzamido)ethoxy)ethyl)-4-hydroxy-pyrrolidine-2-carboxamide], for which the IC90 turned out to be 230 nM.
As for `CCc1cc(Nc2nccn3c(-c4ccc(OC)c(F)c4F)cnc23)ccc1C(=O)NCCNCCNCC(=O)O` [Example 216, (2-((2-(4-((3-(2,3-difluoro-4-methoxyphenyl)imidazo[1,2-a]pyrazin-8-yl)amino)-2-ethyl-benzamido)ethyl)amino)ethyl) glycine], the concentration for an effect of 90% (IC90) was 490 nM.
Under `COc1ccc(-c2cnc3c(Nc4cc(F)c(C(=O)NCCOCCN)c(Br)c4)nccn23)c(F)c1F` [Example 217, N-(2-(2-amino-ethoxy)ethyl)-2-bromo-4-((3-(2,3-difluoro-4-methoxyphenyl)imidazo[1,2-a]pyrazin-8-yl)amino)-6-fluorobenzamide dihydrochloride] stands 100 nM; under `CCc1cc(Nc2nccn3c(-c4ccc(OC)c(F)c4F)cnc23)ccc1C(=O)N[C@@H](C)CNCCO` [Example 218, 4-[[3-(2,3-difluoro-4-methoxy-phenyl)imidazo [1,2-a]pyrazin-8-yl]amino]-2-ethyl-N-[(1S)-2-(2-hydroxyethyl-amino)-1-methyl-ethyl]benzamide], 540 nM; under `CCc1cc(Nc2nccn3c(-c4ccc(OC)c(F)c4F)cnc23)ccc1C(=O)N[C@@H](C)CNCCN` [Example 219, N-[(1S)-2-(2-aminoethyl-amino)-1-methyl-ethyl]-4-[[3-(2,3-difluoro-4-methoxy-phenyl)imidazo[1,2-a]pyrazin-8-yl]amino]-2-ethyl-benzamide; formic acid], 580 nM.
As to `CCc1cc(Nc2nccn3c(-c4cc(Cl)c(OC)cc4F)cnc23)ccc1C(=O)NCCOCCN` [Example 220, N-[2-(2-amino-ethoxy)ethyl]-4-[[3-(5-chloro-2-fluoro-4-methoxy-phenyl)imidazo[1,2-a]pyrazin-8-yl]amino]-2-ethyl-benzamide], the 90% effect concentration (IC90) amounted to 80 nM.
`COc1ccc(-c2cnc3c(Nc4ccc(C(=O)NCCCNCCO)c(Cl)c4)nccn23)c(F)c1F` [Example 221, 2-chloro-4-((3-(2,3-difluoro-4-methoxyphenyl)imidazo[1,2-a]pyrazin-8-yl)amino)-N-(3-((2-hydroxyethyl)amino)propyl) benzamide 2-chloro-4-((3-(2,3-difluoro-4-methoxyphenyl)imidazo[1,2-a]pyrazin-8-yl)amino)-N-(3-((2-hydroxyethyl)amino)propyl)benzamide]: the IC90 was determined as 80 nM.
`CCc1cc(Nc2nccn3c(-c4cc(F)c(OC)cc4F)cnc23)ccc1C(=O)NCCOCCN` [Example 222, N-[2-(2-amino-ethoxy)ethyl]-4-[[3-(2,5-difluoro-4-methoxy-phenyl)imidazo[1,2-a]pyrazin-8-yl]amino]-2-ethyl-benzamide]: the IC90 was 40 nM.
Under `CCc1cc(Nc2nccn3c(-c4ccc(OC)c(F)c4F)cnc23)ccc1C(=O)NCCCCCN(C)C` [Example 223, 4-((3-(2,3-difluoro-4-methoxyphenyl)imidazo[1,2-a]pyrazin-8-yl)amino)-N-(5-(dimethylamino)pentyl)-2-ethylbenzamide] stands 30 nM; under `CCOCCCNC(=O)c1ccc(Nc2nccn3c(-c4ccc(OC)c(F)c4F)cnc23)cc1CC` [Example 224, 4-((3-(2,3-difluoro-4-methoxyphenyl)imidazo[1,2-a]pyrazin-8-yl)amino)-N-(3-ethoxypropyl)-2-ethylbenzamide], 180 nM.
Under `C#CCNCCCNC(=O)c1ccc(Nc2nccn3c(-c4ccc(OC)c(F)c4F)cnc23)cc1CC` [Example 225, 4-((3-(2,3-difluoro-4-methoxyphenyl)imidazo[1,2-a]pyrazin-8-yl)amino)-2-ethyl-N-(3-(prop-2-yn-1-ylamino)propyl) benzamide] stands 50 nM; under `C#CCNCCCCNC(=O)c1ccc(Nc2nccn3c(-c4ccc(OC)c(F)c4F)cnc23)cc1CC` [Example 227, 4-[[3-(2,3-difluoro-4-methoxy-phenyl)imidazo[1,2-a]pyrazin-8-yl]amino]-2-ethyl-N-[4-(prop-2-ynylamino)butyl]benzamide], 30 nM; under `CCc1cc(Nc2nccn3c(-c4ccc(OC)c(F)c4F)cnc23)ccc1C(=O)N[C@H](C)CNCCCCNCCCN` [Example 228, (R)-N-(1-((4-((3-aminopropyl)amino)butyl)amino)propan-2-yl)-4-((3-(2,3-difluoro-4-methoxyphenyl)imidazo[1,2-a]pyrazin-8-yl)amino)-2-ethylbenzamide trihydrochloride], 510 nM.
As to `CCc1cc(Nc2nccn3c(-c4ccc(OC)cc4C(F)F)cnc23)ccc1C(=O)NCCOCCN` [Example 229, N-[2-(2-amino-ethoxy)ethyl]-4-[[3-[2-(difluoro-methyl)-4-methoxy-phenyl]imidazo [1,2-a]pyrazin-8-yl]amino]-2-ethyl-benzamide], the IC90 is 40 nM.
To `CCc1cc(Nc2nccn3c(-c4ccc(OC)c(F)c4C(F)(F)F)cnc23)ccc1C(=O)NCCOCCN` [Example 231] belongs 60 nM.

(Values after patent publication US20230017532A1 (Hoffmann-La Roche Inc., priority 2018, published 2023).)
